Test results taken from patent US20020111314A1, “Novel stimulation of gene expression and protein synthesis of heat shock protein 72/73 (Hsp 70)” (The Trustees of Columbia University, priority 1995, published 2002).
Numbered stars: 1 amine (or outer) side, 2 acyl side, 3 side chain; on linkers, the order of the positions; unused ones are H or OH. Bridge positions count the residues as written; N and C are the ends. Square brackets hold non-standard residues; d marks the D form. Peptide text beside a SMILES is read from it. I, II: the chains in the order shown. * marks the point of attachment. Actinocin(9to1) = Cc1c2oc3c(C)ccc(C(=O)[*:1])c3nc-2c(C(=O)[*:2])c(N)c1=O; Sta = CC(C)C[C@H](N)[C@@H](O)CC(=O)O; NMeV = CN[C@H](C(=O)O)C(C)C; Isovaleryl = CC(C)CC(=O)*; Cbz = O=C(OCc1ccccc1)*; Sar = CNCC(=O)O

What was measured:
Format in all cases: cell-based, human
[1] = tested on: Hsp70; assay: Hsp70 induction in HepG2 cells ([3H]-leucine labeling, denaturing immunoprecipitation); details: HepG2; for induction of Hsp70 by protease inhibitors (FIG. 3A): 4 h pre-treatment, ALLN 40, ALLM 40, leupeptin 50, pepstatin A 50, E-64d 25 μg/ml, PMSF 1 mM, aprotinin 100 KIU/ml
Protocol: HepG2 cells were grown up to 95% confluence and then preincubated for 4 hours in a 37° C. incubator with serum-free minimum essential medium (MEM), followed by radiolabeling with 3H-leucine (150 μCi/ml) dissolved in serum-free, leucine-free medium. Preincubation and labeling medium each contained 1.5% bovine serum albumin (BSA) plus different concentrations of ALLN as indicated. After labeling, cells were collected and lysed, and Hsp70 was immunoprecipitated under denaturing conditions as described under Experimental Details. Cell lysates containing an equal amount of TCA-insoluble radioactivity were used for immunoprecipitation. (A): The immunoprecipitates were analyzed by sodium dodecyl sulfate-polyacryamide gel electrophoresis (SDS-PAGE) and fluorography. Numbers on the left-hand side denote molecular markers. (B): The Hsp70 radioactivity was quantitated by scintillation counting and plotted. All the values were presented as means±SD from three individual culture dishes.
(§1) FIGS. 3A-3B: Effects of the other protease inhibitors on Hsp70 biosynthesis in HepG2 cells. HepG2 cells were preincubated in serum-free MEM containing either 1.5% BSA alone (Control), or BSA plus 40 μg/ml of ALLN, 40 μg/ml of ALLM, 50 μg/ml of leupeptin, 50 μg/ml of pepstatin A, 25 μg/ml of E-64d, 1 mM of phenylmethylsulfonyl fluoride (PMSF), 100 KIU/ml of apotinin, 1 mM of Benzamidine (Benz), 200 μM of calpain inhibitor peptide (CIP). Radiolabeling (in the presence of protease inhibitors), lysis and immunoprecipitation were performed as described in FIG. 1. The Hsp70 specific radioactivity (A) and the amount of total incorporated radioactivity (TCA-cpm) (B) were compared with each other. All the values were presented as the mean±SD from three individual culture dishes.
FIGS. 9A-9B: Effects of proteasome inhibitors on Hsp70 induction. HepG2 cells were preincubated with the proteasome inhibitors MG132 at a final concentration of either 10 μM or 30 μM (A), or lactacystin at 10 μM (B) for 4 hours under conditions described in FIG. 3. These cells were then subjected to radiolabeling (30 min), cell lysis, and immunoprecipitation with anti-Hsp70 antibody. The experiments with MG132 (A) were repeated twice; the effects of lactacystin (B) were studied in triplicate culture dishes.
ALLN, leupeptin, mouse anti-human Hsp72/73 monoclonal antibody, a secondary antibody conjugated with horseradish peroxidase (HRP) (goat anti-rabbit immunoglubin G [IgG]), and rabbit anti-rat IgG antibody were from Boehringer Mannheim Co. Anti-Human Hsp25 and anti-human Hsp60 monoclonal antibodies, ALLM, Calpain inhibitor peptide (CIP), dimethyl sulfoxide (DMSO) and dithiothreitol (DTT) were from Sigma. Human Hsp70 oligonucleotide probe was from Oncogene Science. This oligonucleotide was ^32P labeled at the 5′-end by T4 Kinase, which was from Biolabs. ^32P was from ICN Pharmaceutical Inc. L-[4,5-^3H] leucine was from Amersham Co. Anti-human Bip (immunoglobulin heavy chain binding protein, also called Grp78), anti-human Hsp27, anti-human Hsp60, and anti-human Hsp90 monoclonal antibodies were from Stress Genes. Anti-human Hsp86 and Hsp104 antibodies were from Affinity Bioreagent Inc. Nitrocellular transfer and immobilization membranes were from Schleicher & Schuell, Keene, N.H. RNA extraction kits were from Biotect, Tex. The polyclonal antibody against the human HSF1 protein was a generous gift from Dr. Carl Wu of the National Institute of Health (Rabindran, et al., 1993). Ethylene glycol bis(succunimidylsuccinate) (EGS) was from Pierce. Cbz-leucyl-leucyl-leucinal (MG132) was a gift of Dr. H. Ploegh at the Massachusetts Institute of Technology. All the other tissue culture supplies and chemicals were obtained from supplies as previously described (Dixon, et al., 1991). The HepG2 cell culture conditions were maintained as previously described (Dixon, et al., 1991).

[2] = tested on: HepG2 cells; assay: Total incorporation of radiolabel (TCA cpm) as indicator of cell toxicity in HepG2 cells; details: MG132 10 or 30 μM, lactacystin 10 μM, data not shown
Protocol: as §1
Preincubation and labeling media each contained either 1.5% bovine serum albumin (BSA) alone, or BSA plus ALLN (40 μg/ml except as otherwise indicated), or BSA plus other protease inhibitors at concentrations indicated in the figure legends. At the indicated times, cells were removed from the 37° C. incubator and placed on ice, washed with cold phosphate-buffer saline (PBS) twice and lysed with lysis buffer containing 1% Triton X-100 (TX100), 1% deoxycholic acid (DOC) and 0.1% SDS in PBS containing proteinase inhibitors: 2 mM phenylmethylsulfonyl fluoride (PMSF); 2 μg/ml ALLN; 2 μg/ml leupeptin; and 2 μg/ml aprotinin. After a 30 min. incubation with lysis buffer at 4° C., the lysates were centrifuged at 14,000 g in a microcentrifuge for 5 min., and the supernatants were adjusted to 1% SDS concentration and boiled for 5 min. to denature the proteins. 1% TX100 was then added to dilute the lysates to a final concentration of 0.1% SDS. Cell lysates containing equal amounts of trichloroacetic acid (TCA)-insoluble radioactivity were used for immunoprecipitations by incubating with individual monoclonal antibody (1 μg/ml) for 2.5 hours at 4° C. Protein-A Sepharose 4B was added afterwards and the lysates incubated for another 1.5 hours at 4° C. to collect the immunocomplexes. […]

[3] = tested on: hsp70, i.e. hsp72, mRNA; assay: Northern blot of hsp70 (hsp72) mRNA in HepG2 cells; details: ALLN 40 μg/ml plus actinomycin D 10 μg/ml or cycloheximide 50 μg/ml, 4 hours
Protocol: After 4 hours treatment at 37° C., cells were harvested. (B). […] The total RNA was prepared, and equal amounts of the samples were loaded and run on a 1% formaldehyde-agarose gel, blotted onto a nylon membrane, and subsequently hybridized with specific synthetic oligonucleotide probes for hsp70 mRNA as described under Experimental Details. The position of 28S and 18S rRNA are shown for reference.
Equal amounts of tRNA samples (10 μg) were size-fractionated on a 1% agarose-formaldehyde gel according to the methods described (Maniatis, et al., 1982) and transferred to a piece of QIAGEN plus nylon membrane. To determine loading and transfer efficiency, RNA was stained with ethidium bromide before and after transfer. The membrane was baked for 30 min. at 80° C. in vacuo (a vacuum) followed by UV cross-linking. It was then incubated for 4 hours at 65° C. in a prehybridization mixture containing 10% dextran sulfate, 1% SDS, 1M sodium chloride, 50 mM Tris-HCl (pH 7.5) and 100 μg/ml denatured salmon sperm DNA. […] The membrane was then washed four times with 2×SSC, 0.1% SDS at room temperature, one time at 65° C. for 30 min., and one time at room temperature again for 5 min., and finally rinsed with 2×SSC at room temperature.

[4] = tested on: HSF1; assay: HSF1 steady-state level and trimerization (Western blot, EGS cross-linking) in HepG2 cells
Protocol: HepG2 cells were treated with serum-free MEM containing 1.5% BSA for 2 hours at 37° C. without any additions (lane 1), at 37° C. but containing 40 μg/ml of ALLN in the medium (lane 2), at 37° C. in a medium containing both ALLN and 50 μg/ml of cycloheximide (lane 3), at 42° C. alone (lane 4), or at 42° C. plus cycloheximide in the medium (lane 5). Cell lysates were prepared as described under Experimental Details. The lysates were either directly run on the SDS-PAGE (A) to show the steady-state protein levels of HSF1 or subjected to cross-linking with ethylene glycol bis sucrinimidylsuccinate (EGS) before running the gel (B) to show the oligomeric forms of HSF1. The proteins were then transfered to a nitrocellulose membrane and immunoblotted with anti-human HSF1 antibody. Arrows on the right side indicates the monomeric, dimeric or trimeric forms of HSF1, respectively. This experiment was repeated three times with identical results.
Total RNA was prepared using the procedure of Chomczynski and Sacchi (Chomczynski, et al., 1987) and a commercially prepared reagent, TRISOLV™ (Biotecx Laboratories Inc., TX). Equal amounts of tRNA samples (10 μg) were size-fractionated on a 1% agarose-formaldehyde gel according to the methods described (Maniatis, et al., 1982) and transferred to a piece of QIAGEN plus nylon membrane. To determine loading and transfer efficiency, RNA was stained with ethidium bromide before and after transfer. The membrane was baked for 30 min. at 80° C. in vacuo (a vacuum) followed by UV cross-linking. It was then incubated for 4 hours at 65° C. in a prehybridization mixture containing 10% dextran sulfate, 1% SDS, 1M sodium chloride, 50 mM Tris-HCl (pH 7.5) and 100 μg/ml denatured salmon sperm DNA. Hybridization was carried out for 18 hours at 65° C. in the same buffer with a ^32P-labeled (1×10^6 cpm/ml) 40-mer oligonucleotide probe to the untranslated 5′ region of a human hsp70 gene (Oncogene Science). […] The membrane was then washed four times with 2×SSC, 0.1% SDS at room temperature, one time at 65° C. for 30 min., and one time at room temperature again for 5 min., and finally rinsed with 2×SSC at room temperature. This membrane was air dried and exposed to X-ray film at −80° C. for 48 hours. For measurement of the steady-state HSF1 protein levels, whole cell extracts were prepared by lysing the cells directly with 2×SDS-sample buffer (Maniatis, et al., 1982). For chemical cross-linking experiments, whole-cell extracts were prepared as described (Mosser, et al., 1988). Briefly, the cold PBS-washed cell pellets were quickly and repeatedly frozen in liquid nitrogen. […]

`CC(=O)N[C@@H](CC(C)C)C(=O)N[C@@H](CC(C)C)C(=O)N[C@H](C=O)CCCNC(=N)N` [Leupeptin, leupeptin] was tested, and the “induction of Hsp70 by protease inhibitors (FIG. 3A)” value [1] was “ineffective”.

In the case of `CC(C)C[C@@H](C=O)NC(=O)[C@H](CC(C)C)NC(=O)[C@H](CC(C)C)NC(=O)OCc1ccccc1` [MG132, Cbz-leucyl-leucyl-leucinal] (Cbz-Leu-Leu-Leu-aldehyde), the “toxicity to the cells (TCA-precipitable radioactivities)” value [2] was “without obvious toxicity” and the “induction of Hsp70 levels by proteasome inhibitors (FIG. 9)” value ([1]; 4 hours, MG132 10 μM or 30 μM, lactacystin 10 μM, 30 min labeling) was “induced Hsp70 levels dramatically”.

With `O=S(=O)(F)Cc1ccccc1` [PMSF, phenylmethylsulfonyl fluoride] the “induction of Hsp70 by protease inhibitors (FIG. 3A)” value [1] was “No induction”.

With `Cc1c2oc3c(C)ccc(C(=O)N[C@@H]4C(=O)N[C@H](C(C)C)C(=O)N5CCC[C@H]5C(=O)N(C)CC(=O)N(C)[C@@H](C(C)C)C(=O)O[C@@H]4C)c3nc-2c(C(=O)N[C@@H]2C(=O)N[C@H](C(C)C)C(=O)N3CCC[C@H]3C(=O)N(C)CC(=O)N(C)[C@@H](C(C)C)C(=O)O[C@@H]2C)c(N)c1=O` [actinomycin D] (I: T[dV]P[Sar][NMeV] / II: T[dV]P[Sar][NMeV]; ester I:1-I:C, II:1-II:C; linker I:N-II:N via Actinocin(9to1)) the “effect of co-treatment on ALLN-induced increase in hsp72 mRNA” value [3] was “abolished the effects of ALLN”.

With `C[C@@H]1C[C@@H]([C@H](O)CC2CC(=O)NC(=O)C2)C(=O)[C@@H](C)C1` [cycloheximide] the “effect on heat shock-associated HSF1 trimerization” value ([4]; 42° C. plus cycloheximide 50 μg/ml) was “did not, however, affect”, the “effect of cotreatment on ALLN-induced HSF1 trimerization” value ([4]; ALLN 40 μg/ml plus cycloheximide 50 μg/ml, 37° C.) was “abolished the effect of ALLN on HSF1 trimerization” and the “effect of co-treatment on ALLN-induced increase in hsp72 mRNA” value [3] was “abolished”.

For `CC(C)CC(=O)N[C@H](C(=O)N[C@H](C(=O)N[C@@H](CC(C)C)[C@@H](O)CC(=O)N[C@@H](C)C(=O)N[C@@H](CC(C)C)[C@@H](O)CC(=O)O)C(C)C)C(C)C` [pepstatin] (Isovaleryl-VV[Sta]A[Sta]-OH), the “induction of Hsp70 by protease inhibitors (FIG. 3A)” value [1] was “No induction”.

With aprotinin the “induction of Hsp70 by protease inhibitors (FIG. 3A)” value [1] was “No induction”.
